The test system of one data set is WSU-DLCL2 xenograft. Nature of the data set: DLBCL xenograft model. The data set is classed as in vivo, SCID mice. As to conditions: for tumor volume reduction (TVR): Day 35, end of 3-week dosing, vs vehicle control (FIG. 1); for decrease in tumor volume (TVR): Day 34, vs vehicle, Compound 1 10 mg/kg QD, Compound A 30 mg/kg QD, alone or combined (FIGS. 2-3). Here is the method: Severe combined immunodeficiency (SCID) mice were implanted with human DLBCL cell line (WSU-DLCL2) into the flank. Treatment of compounds started between Day 11 and Day 14 after cell inoculation. Randomized groups of mice (n=9 to 10/group) were treated with the single agents (Compound 1, Compound A or Compound AA) or the combination of Compound 1/Compound A, Compound A/Compound AA, or Compound 1/Compound AA. Compounds were administered orally on a once daily (Compound 1 and Compound A) or twice daily […] schedule for 21 days. The positive control consisted of CHOP therapy (combination of cyclophosphamide, doxorubicin, vincristine and prednisone). Compound 1 and Compound A were formulated in CMC-Tween (carboxymethylcellulose/Tween 80/deionized water). Compound AA was suspended in DSP (dimethylsulphoxide/solutol/phosphate buffered saline).
Initial studies were conducted in order to determine the antitumor activity of Compound 1 and to identify a dose level for the combination studies. In the WSU-DLCL2 xenograft model, Compound 1 inhibited tumor growth in a dose-dependent fashion. […] In a subsequent combination study, Compound 1 was dosed at 10 mg/kg, once daily (QD). Compound A and Compound AA were dosed at 30 mg/kg (QD) and 50 mg/kg (BID), respectively.

Another data set relates to B-cell. As to conditions: cited from earlier work.
For the next data set, the target named is BTK (Homo sapiens, UniProt Q06187). As to conditions: enzymatic and cellular assays; cited from earlier work.
The mark [1] stands for this setting: combination study, Compound AA 50 mg/kg BID.
The mark [2] stands for this setting: combination study, single agents or in combination.

“Also recorded” adds a separate entry of the source.

Sequence of BTK (Q06187 whole entry): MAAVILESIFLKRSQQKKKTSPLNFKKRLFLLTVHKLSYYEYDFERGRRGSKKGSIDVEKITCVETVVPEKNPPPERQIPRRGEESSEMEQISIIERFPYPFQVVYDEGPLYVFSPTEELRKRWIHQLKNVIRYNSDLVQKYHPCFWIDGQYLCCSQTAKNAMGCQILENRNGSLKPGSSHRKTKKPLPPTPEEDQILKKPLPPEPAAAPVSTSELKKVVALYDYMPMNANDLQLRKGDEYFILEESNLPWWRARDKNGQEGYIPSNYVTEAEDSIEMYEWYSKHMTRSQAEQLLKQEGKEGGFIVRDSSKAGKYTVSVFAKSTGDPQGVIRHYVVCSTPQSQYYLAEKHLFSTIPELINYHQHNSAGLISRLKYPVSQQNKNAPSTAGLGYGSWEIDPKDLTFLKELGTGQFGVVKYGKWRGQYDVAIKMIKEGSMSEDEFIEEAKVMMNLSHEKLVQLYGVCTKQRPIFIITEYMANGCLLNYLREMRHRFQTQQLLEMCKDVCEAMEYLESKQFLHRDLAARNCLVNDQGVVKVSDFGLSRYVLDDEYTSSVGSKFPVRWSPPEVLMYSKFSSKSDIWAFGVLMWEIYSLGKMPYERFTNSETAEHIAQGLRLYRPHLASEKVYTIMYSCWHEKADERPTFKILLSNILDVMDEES

`CO[C@H]1CC[C@H](N2C(=O)CNc3ncc(-c4ccc(C(C)(C)O)nc4)nc32)CC1` [Compound 1, 7-(6-(2-hydroxypropan-2-yl)pyridin-3-yl)-1-((1r,4r)-4-methoxycyclohexyl)-3,4-dihydropyrazino-[2,3-b]pyrazin-2(1H)-one]: the “tumor volume reduction (TVR)” value in the data set with WSU-DLCL2 xenograft (1 mg/kg oral once daily) is listed as roughly 22%; in the data set on WSU-DLCL2 xenograft (3 mg/kg oral once daily), roughly 28%. Also, the “decrease in tumor volume (TVR)” value in the data set on WSU-DLCL2 xenograft (setting [1]) was determined as 29%. The body weight loss entry is on record as “No significant body weight loss” in the data set with WSU-DLCL2 xenograft (setting [2]); “No significant body weight loss” in the data set on WSU-DLCL2 xenograft (initial dose study, 1, 3 and 10 mg/kg (FIG. 1)).

For `Cc1nc2cccc(N)c2c(=O)n1C1CCC(=O)NC1=O` (centres unmarked) [Compound A, 3-(5-Amino-2-methyl-4-oxoquinazolin-3(4H)-yl)-piperidine-2,6-dione], the “decrease in tumor volume (TVR)” value with WSU-DLCL2 xenograft (setting [1]) came out at 30%. In addition, the body weight loss result with WSU-DLCL2 xenograft (setting [2]) is “No significant body weight loss”.

For `C=CC(=O)Nc1cccc(Nc2nc(Nc3ccc(OCCOC)cc3)ncc2F)c1` [Compound AA, N-(3-(5-fluoro-2-(4-(2-methoxyethoxy)phenylamino)pyrimidin-4-ylamino)phenyl)acrylamide], the “antitumor activity as single agent” value in the data set on WSU-DLCL2 xenograft (setting [1]) was “No significant antitumor activity; also recorded: inactive”. Further, the body weight loss result in the data set on WSU-DLCL2 xenograft (setting [2]) is “No significant body weight loss”. In the data set with B-cell, the “effect on B-cell proliferation and activation” value was “inhibit B-cell proliferation and activation”. The “inhibition of BTK” value at BTK was “covalent, irreversible inhibition of BTK”.

Source of the values: US9358232B2, “Methods for treating cancer using TOR kinase inhibitor combination therapy” (Signal Pharmaceuticals, LLC, priority 2013, dated 2016).
